In US20070021391A1, “Preventive/remedy for urinary disturbance” (priority 2003, published 2007):
Read-outs that look alike come from different tables or passages of the source.

How the values were obtained:
[1] = tested on: butyrylcholine esterase/acetylcholine esterase; conditions: Literature 7; species not given; cited from earlier work
[2] = tested on: Hartley male guinea pig, urethane anesthesia; assay: Pressure/flow study using guinea pig (Example 3); format: in vivo; conditions: for Amount of urination, proportion for value before administration (%) / At maximum urine flow rate Inner pressure of bladder, proportion for value before administration (%) / Maximum urine flow rate, proportion for value before administration (%): i.v.; for Bladder compliance, proportion for value before administration (%) / Bladder volume, proportion for value before administration (%): iv; for change of the parameters at urination and at collection of urine (text): intravenous administration
Description: A Hartley male guinea pig of 5 weeks old (Japan SLC) was used. After urethane anesthesia, the medial incision of the lower abdomen was carried out, and the bladder was exposed. Two injection needles (20G) with which a polyethylene tube (PE-100) was linked were inserted in the bladder, and one needle was used for injection of saline and another needle was used for measurement of the inner pressure of the bladder. The injection of saline was continuously carried out at a rate of 18 mL/h using a syringe pump (SP-100S, JMS, and Hiroshima), the injection was stopped after intermittent urination was confirmed 3 times at minimum, and the saline in the bladder was removed by suction. Injection was started again, and the injection was stopped when the raise of the inner pressure of the bladder just before urination was confirmed. The amount of urine excreted was measured by an electronic weighing machine (HX-400, A&D, and Tokyo) and the inner pressure of the bladder was measured using a pressure transducer (AP641G, NIPPON KODEN Corporation). The analogue data of the weight of urine and the inner pressure of the bladder were inputted in a multi-channel data analyzer (MP-100A-CE, Biopac systems), and analyzed by a proprietary software (Acqknowledge, Biopac systems). The sampling interval of data was 0.1 second and a low pass filter was applied to the data of discharge amount and urine flow rate at 0.5 Hz in order to remove noise. A delay time of 0.1 second in weighing the urine was rectified, and the urine flow rate was determined by differentiating the value of discharge amount. After a value before twice administration of the drug was measured, the drugs (the compound A, distigmine, neostigigmine and bethanechol) were intravenously administrated. Saline in the bladder was extracted after 10 minutes of administration of the compound A, bethanechol and neostigigmine and after 30 minutes of administration of distigmine, and injection was started again to measure data. The drugs were dissolved with distilled water so that administration volume was 0.5 mL/kg. Parameters (bladder volume, the amount of urination, the maximum urine flow rate, the inner pressure of the bladder at the maximum urine flow, bladder compliance) below were measured. The bladder compliance was calculated from intersection point (the threshold of bladder volume, threshold pressure) which was obtained by determining regression line in the respective curves of the inner pressure of the bladder at collection of urine and urinary reflex. The change rate before and after administration of the drug was calculated for the respective parameters and the calibration of significant difference was carried out by a solvent administration group and Dunnett calibration (Table 6 and Table 7).

[3] = target: Acetylcholine esterase (Electrophorus electricus, UniProt O42275); conditions: Electric eel; Literature 5 (tacrine line prints 6); read-out: Acetylcholine esterase inhibitory activity (IC50); cited from earlier work
[4] = target: Butyrylcholine esterase (Equus caballus, UniProt P81908); conditions: read-out: Butyrylcholine esterase inhibitory activity (IC50); cited from earlier work
[5] = target: T1, acetylcholine esterase of human erythrocyte origin (Homo sapiens, UniProt P22303); assay: biochemical; format: biochemical
T1 construct: acetylcholine esterase of human erythrocyte origin; purchased Sigma, St. Louis, Mo., USA; host or cells: human erythrocytes
Description: The AChE inhibitory activity and the BuChE inhibitory activity were determined by a thiocholine method (Ellman method) using acetylcholine esterase of human erythrocyte origin (Sigma, St. Louis, Mo., USA) and butyrylcholine esterase of human serum origin (Biogenesis, Poole, UK). Acetylcholine esterase or butyrylcholine esterase was diluted to a concentration of 0.2 IU/mL with 80 mM tris-HCL buffers (pH=7.4) containing 0.3% bovine serum albumin (BSA) to prepare an enzyme preparation. […] The stock solution was diluted at 3-fold common ratio with 10% DMSO and 80 mM tris-HCl buffers containing 0.3% BSA. On a 96 wells microplate, 20 μL of the drug solution with a given concentration, 30 μL of 80 mM tris-HCl buffers containing 0.3% BSA and 50 μL of the enzyme preparation were distributed, and incubated at room temperature for 1 hour after shaking for 10 seconds. […] For the respective drugs, the test was repeated twice. The % of control of the increase in light absorption was calculated at each concentration with respect to the respective drugs. % of control=increase in light absorption of drug/increase in light absorption of control×100

[6] = tested on: bladder muscle; set-up: species or system guinea pig; conditions: for Tension (%): 30 minutes, change of basic tension, 100 mM KCl contraction = 100%
[7] = target: T2, butyrylcholine esterase of human serum origin (Homo sapiens, UniProt P06276); assay: biochemical; format: biochemical
T2 construct: butyrylcholine esterase of human serum origin; purchased Biogenesis, Poole, UK; host or cells: human serum

[8] = target: Butyrylcholine esterase (Rattus norvegicus, UniProt Q9JKC1); conditions: Literature 6, read-out: Butyrylcholine esterase inhibitory activity (IC50); cited from earlier work
[9] = target: T3, Acetylcholine esterase (Rattus norvegicus, UniProt P37136); conditions: Literature 6, read-out: Acetylcholine esterase inhibitory activity (IC50); cited from earlier work
T3 sequence (P37136 32-614): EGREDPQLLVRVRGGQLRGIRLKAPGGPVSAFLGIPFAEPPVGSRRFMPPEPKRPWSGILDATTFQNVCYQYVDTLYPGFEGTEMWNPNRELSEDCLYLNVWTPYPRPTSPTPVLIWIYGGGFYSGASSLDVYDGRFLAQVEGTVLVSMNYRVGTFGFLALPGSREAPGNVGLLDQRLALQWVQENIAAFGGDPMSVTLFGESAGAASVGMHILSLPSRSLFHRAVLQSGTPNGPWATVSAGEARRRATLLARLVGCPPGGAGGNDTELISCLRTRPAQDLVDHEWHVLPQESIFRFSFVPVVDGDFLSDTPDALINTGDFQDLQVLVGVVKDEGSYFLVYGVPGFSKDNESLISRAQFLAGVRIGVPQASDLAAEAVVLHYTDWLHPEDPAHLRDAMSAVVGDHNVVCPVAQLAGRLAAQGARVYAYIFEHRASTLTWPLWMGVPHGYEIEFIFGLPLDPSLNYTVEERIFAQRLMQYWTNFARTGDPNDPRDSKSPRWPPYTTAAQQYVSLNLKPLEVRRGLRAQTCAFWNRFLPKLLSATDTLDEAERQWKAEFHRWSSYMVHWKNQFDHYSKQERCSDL

T2 sequence (P06276 29-602): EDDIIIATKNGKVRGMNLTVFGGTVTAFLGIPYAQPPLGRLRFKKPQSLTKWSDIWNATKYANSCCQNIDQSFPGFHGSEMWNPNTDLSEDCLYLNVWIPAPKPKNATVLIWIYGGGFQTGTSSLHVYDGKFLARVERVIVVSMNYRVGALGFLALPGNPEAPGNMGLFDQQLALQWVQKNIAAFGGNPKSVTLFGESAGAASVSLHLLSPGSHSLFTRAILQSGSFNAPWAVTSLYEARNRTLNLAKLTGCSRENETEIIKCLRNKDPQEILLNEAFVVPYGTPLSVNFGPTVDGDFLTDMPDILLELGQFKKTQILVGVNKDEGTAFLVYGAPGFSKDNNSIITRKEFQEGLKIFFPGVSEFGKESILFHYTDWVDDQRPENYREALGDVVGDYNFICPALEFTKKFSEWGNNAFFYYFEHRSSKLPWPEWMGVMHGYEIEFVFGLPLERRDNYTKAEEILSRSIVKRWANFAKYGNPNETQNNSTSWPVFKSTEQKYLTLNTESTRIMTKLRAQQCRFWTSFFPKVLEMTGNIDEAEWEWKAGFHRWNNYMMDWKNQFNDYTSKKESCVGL
Chain of Butyrylcholine esterase (Equus caballus, UniProt P81908) (P81908 whole entry): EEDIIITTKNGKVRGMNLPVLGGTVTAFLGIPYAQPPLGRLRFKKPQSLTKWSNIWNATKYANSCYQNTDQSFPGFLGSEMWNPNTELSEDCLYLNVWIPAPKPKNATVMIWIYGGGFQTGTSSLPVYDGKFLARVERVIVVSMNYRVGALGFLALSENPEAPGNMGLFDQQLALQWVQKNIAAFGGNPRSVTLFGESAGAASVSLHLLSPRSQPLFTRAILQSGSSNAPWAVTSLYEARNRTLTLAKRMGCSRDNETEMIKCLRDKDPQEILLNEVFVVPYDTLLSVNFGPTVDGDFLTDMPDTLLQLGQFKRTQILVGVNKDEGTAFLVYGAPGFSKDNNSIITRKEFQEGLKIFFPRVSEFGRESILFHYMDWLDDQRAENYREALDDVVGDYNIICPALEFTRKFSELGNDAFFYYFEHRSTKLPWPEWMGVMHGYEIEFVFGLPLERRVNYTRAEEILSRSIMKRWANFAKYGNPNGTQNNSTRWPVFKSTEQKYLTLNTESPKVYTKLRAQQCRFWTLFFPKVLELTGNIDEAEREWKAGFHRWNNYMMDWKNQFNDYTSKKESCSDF
Chain of Butyrylcholine esterase (Rattus norvegicus, UniProt Q9JKC1) (Q9JKC1 24-597): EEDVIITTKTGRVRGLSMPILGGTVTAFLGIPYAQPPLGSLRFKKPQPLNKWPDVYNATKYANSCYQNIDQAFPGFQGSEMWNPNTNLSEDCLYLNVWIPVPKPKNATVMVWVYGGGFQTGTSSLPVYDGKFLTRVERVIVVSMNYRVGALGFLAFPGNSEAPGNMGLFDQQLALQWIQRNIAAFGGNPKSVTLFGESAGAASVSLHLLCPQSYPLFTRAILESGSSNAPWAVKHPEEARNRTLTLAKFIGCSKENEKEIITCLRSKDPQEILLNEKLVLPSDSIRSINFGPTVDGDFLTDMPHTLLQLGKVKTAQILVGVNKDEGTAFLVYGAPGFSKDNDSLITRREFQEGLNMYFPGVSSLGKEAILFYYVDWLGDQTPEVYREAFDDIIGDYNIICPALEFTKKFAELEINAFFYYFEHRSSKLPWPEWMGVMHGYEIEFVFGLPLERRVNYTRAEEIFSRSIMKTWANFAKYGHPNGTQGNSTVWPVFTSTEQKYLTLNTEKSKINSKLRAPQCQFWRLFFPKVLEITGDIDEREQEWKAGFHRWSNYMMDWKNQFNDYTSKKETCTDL
T1 sequence (P22303 32-617 isoform P22303-2 limits assumed): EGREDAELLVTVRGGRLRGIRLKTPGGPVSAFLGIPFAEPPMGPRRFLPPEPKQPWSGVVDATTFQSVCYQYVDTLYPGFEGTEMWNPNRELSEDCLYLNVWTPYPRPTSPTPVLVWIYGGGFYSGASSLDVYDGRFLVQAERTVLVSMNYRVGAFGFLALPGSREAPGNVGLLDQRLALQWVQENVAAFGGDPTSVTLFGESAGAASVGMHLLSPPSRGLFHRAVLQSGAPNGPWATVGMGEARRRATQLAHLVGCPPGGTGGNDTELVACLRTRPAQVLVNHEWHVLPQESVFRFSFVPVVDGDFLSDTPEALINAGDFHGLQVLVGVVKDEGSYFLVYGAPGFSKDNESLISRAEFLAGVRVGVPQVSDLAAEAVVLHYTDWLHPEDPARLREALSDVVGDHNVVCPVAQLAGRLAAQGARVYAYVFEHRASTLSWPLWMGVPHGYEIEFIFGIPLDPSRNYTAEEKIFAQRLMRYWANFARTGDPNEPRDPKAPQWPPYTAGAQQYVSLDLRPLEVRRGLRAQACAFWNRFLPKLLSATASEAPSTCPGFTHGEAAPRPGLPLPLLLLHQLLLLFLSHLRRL
Chain of Acetylcholine esterase (Electrophorus electricus, UniProt O42275) (O42275 24-633): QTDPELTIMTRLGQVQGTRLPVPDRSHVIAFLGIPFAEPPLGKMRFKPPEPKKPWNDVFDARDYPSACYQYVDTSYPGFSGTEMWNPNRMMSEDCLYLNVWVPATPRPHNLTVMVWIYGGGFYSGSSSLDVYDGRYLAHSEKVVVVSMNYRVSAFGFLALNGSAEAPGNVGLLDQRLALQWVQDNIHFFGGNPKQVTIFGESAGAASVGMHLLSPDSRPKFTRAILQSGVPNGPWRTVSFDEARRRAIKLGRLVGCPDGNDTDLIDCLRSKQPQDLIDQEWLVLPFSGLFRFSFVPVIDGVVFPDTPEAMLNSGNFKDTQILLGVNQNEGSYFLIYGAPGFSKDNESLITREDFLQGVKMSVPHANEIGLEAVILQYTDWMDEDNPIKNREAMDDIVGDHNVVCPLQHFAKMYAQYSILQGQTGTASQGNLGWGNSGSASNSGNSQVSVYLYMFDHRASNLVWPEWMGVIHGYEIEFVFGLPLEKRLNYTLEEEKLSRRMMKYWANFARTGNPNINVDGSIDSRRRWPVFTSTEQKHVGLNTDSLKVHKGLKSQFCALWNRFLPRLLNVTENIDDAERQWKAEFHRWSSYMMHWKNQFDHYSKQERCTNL

SMILES: CCc1ccccc1NC(=O)Oc1ccc2c(c1)[C@]1(C)CCN(C)O[C@@H]1N2C [Ganstigmine]
- Selectivity (butyrylcholine esterase/acetylcholine esterase) [1]: 115

SMILES: CN(C)C(=O)Oc1cccc([N+](C)(C)C)c1 [Neostigigmine]
- Amount of urination, proportion for value before administration (%) ([2]; 0.01 mg/kg): 107.7 ± 17.2%
- At maximum urine flow rate Inner pressure of bladder, proportion for value before administration (%) ([2]; 0.01 mg/kg): 112.3 ± 4.2%
- Maximum urine flow rate, proportion for value before administration (%) ([2]; 0.01 mg/kg): 79.4 ± 11.5%
- Bladder compliance, proportion for value before administration (%) ([2]; 0.01 mg/kg): 61.5 ± 8.6%
- Bladder volume, proportion for value before administration (%) ([2]; 0.01 mg/kg): 81.1 ± 8.9%
- Amount of urination, proportion for value before administration (%) ([2]; 0.03 mg/kg): 91.6 ± 14.9%
- At maximum urine flow rate Inner pressure of bladder, proportion for value before administration (%) ([2]; 0.03 mg/kg): 128.5 ± 10.9 %
- Maximum urine flow rate, proportion for value before administration (%) ([2]; 0.03 mg/kg): 67.2 ± 9.9%
- Bladder compliance, proportion for value before administration (%) ([2]; 0.03 mg/kg): 59.4 ± 9.1 %
- Bladder volume, proportion for value before administration (%) ([2]; 0.03 mg/kg): 86.4 ± 7.5%
- Amount of urination, proportion for value before administration (%) ([2]; 0.1 mg/kg): 58.3 ± 16.4%
- At maximum urine flow rate Inner pressure of bladder, proportion for value before administration (%) ([2]; 0.1 mg/kg): 130.9 ± 8.7 %
- Maximum urine flow rate, proportion for value before administration (%) ([2]; 0.1 mg/kg): 54.0 ± 13.8%
- Bladder compliance, proportion for value before administration (%) ([2]; 0.1 mg/kg): 31.7 ± 7.1 %
- Bladder volume, proportion for value before administration (%) ([2]; 0.1 mg/kg): 66.5 ± 14.7%
- change of the parameters at urination and at collection of urine (text) [2]: lowered the bladder compliance significantly
- change of the parameters at urination and at collection of urine (text) ([2]; listed as neostigigmine): did not show clear action for the amount of urination and the maximum urine flow rate and increased urination pressure significantly
- IC50 [3]: 5000 nM
- IC50 [4]: 100 nM
- inhibition of the activity of human acetylcholine esterase [5]: inhibited the activity of human acetylcholine esterase
- Tension (%) ([6]; 0.01 μM): −0.95 ± 0.37%
- Tension (%) ([6]; 0.03 μM): −0.31 ± 0.25%
- Tension (%) ([6]; 0.1 μM): 1.52 ± 0.37 %
- Tension (%) ([6]; 0.3 μM): 6.87 ± 1.25 %
- Tension (%) ([6]; 1 μM): 17.78 ± 2.25 %
- effect on basic tension ([6]; drug alone): increased basic tension significantly and concentration-dependently
- IC50 [7]: 600 nM
- inhibitory activity for human butyrylcholine esterase [7]: inhibitory activity was confirmed

SMILES: O=C(CCC1CCN(Cc2ccccc2)CC1)c1ccc2c(c1)NCCCC2 [TAK-147]
- IC50 [8]: 24000 nM
- IC50 [9]: 51 nM
